ChEMBL document CHEMBL1201862, “PubChem BioAssay data set” (2004)
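Five concentrations, 48 hours, 96-well plates. Here, GI50 denotes the concentration required for 50% inhibition of growth.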 Calls of active or inactive are those of the source. Cut-off read from the data, not from the text of the source: active = GI50 up to about 1.1 µM and inactive = higher. Residues, ends and D or L forms follow the SMILES beside them. *: point of attachment. Boc = CC(C)(C)OC(=O)*

Assays:
Test in all cases: inhibition of tumour cell growth, NCI panel, 48 h
[1] = system: K562
[2] = system: OVCAR-8
[3] = system: PC-3
[4] = system: NCI/ADR-RES
[5] = system: NCI-H23
[6] = system: SNB-19
[7] = system: ACHN
[8] = system: HOP-62
[9] = system: 786-0
[10] = system: HCT-15
[11] = system: MDA-N
[12] = system: SK-OV-3
[13] = system: UACC-257
[14] = system: DU-145
[15] = system: SNB-75
[16] = system: UACC-62
[17] = system: T47D
[18] = system: SF-539
[19] = system: SW-620
[20] = system: HOP-92

SMILES	GI50 [1]	GI50 [2]	GI50 [3]	GI50 [4]	GI50 [5]	GI50 [6]	GI50 [7]	GI50 [8]	GI50 [9]	GI50 [10] [µM]	GI50 [11]	GI50 [12]	GI50 [13]	GI50 [14]	GI50 [15]	GI50 [16]	GI50 [17]	GI50 [18]	GI50 [19]	GI50 [20]
N=C/N=C/C(=S)O[C@@H]1C(=O)N2CCC[C@@]23CCCC[C@@H]13	> 12.5 µM (inactive)	> 12.5 µM (inactive)	> 12.5 µM (inactive)	> 12.5 µM (inactive)	> 12.5 µM (inactive)	> 12.5 µM (inactive)	> 12.5 µM (inactive)	> 12.5 µM (inactive)	> 12.5 µM (inactive)	> 12.5	> 12.5 µM (inactive)	> 12.5 µM (inactive)	> 12.5 µM (inactive)	> 12.5 µM (inactive)	> 12.5 µM (inactive)	> 12.5 µM (inactive)	> 12.5 µM (inactive)	–	–	–
Nc1c(C(=O)O)nnc2cc(Cl)c(Cl)cc12	> 100 µM (inactive)	> 100 µM (inactive)	> 100 µM (inactive)	> 100 µM (inactive)	> 100 µM (inactive)	> 100 µM (inactive)	> 100 µM (inactive)	> 100 µM (inactive)	> 100 µM (inactive)	> 100	> 100 µM (inactive)	> 100 µM (inactive)	> 100 µM (inactive)	> 100 µM (inactive)	> 100 µM (inactive)	> 100 µM (inactive)	> 100 µM (inactive)	> 100 µM (inactive)	> 100 µM (inactive)	–
NNC(=S)N/N=C(/C(=O)Nc1ccc(Cl)c(Cl)c1)C(C1OC(=O)c2ccccc21)[N+](=O)[O-] (stereo not drawn)	> 100 µM (inactive)	> 100 µM (inactive)	> 100 µM (inactive)	> 100 µM (inactive)	> 100 µM (inactive)	–	> 100 µM (inactive)	> 100 µM (inactive)	> 100 µM (inactive)	> 100	> 100 µM (inactive)	> 100 µM (inactive)	> 100 µM (inactive)	–	> 100 µM (inactive)	> 100 µM (inactive)	> 100 µM (inactive)	> 100 µM (inactive)	> 100 µM (inactive)	86.9 µM (inactive)
Cc1cc2c(cc1Cl)SC(N/N=C(\N)c1ccc(Cl)cc1)=NS2(=O)=O	44 µM (inactive)	45.4 µM (inactive)	41 µM (inactive)	> 100 µM (inactive)	30.7 µM (inactive)	77.4 µM (inactive)	84.3 µM (inactive)	> 100 µM (inactive)	90.8 µM (inactive)	46.5	–	> 100 µM (inactive)	62.7 µM (inactive)	> 100 µM (inactive)	74.5 µM (inactive)	59.7 µM (inactive)	53.3 µM (inactive)	32.3 µM (inactive)	25.8 µM (inactive)	10.4 µM (inactive)
COC(=O)c1cc(NC(=O)Cc2c[nH]c3ccccc23)cn1C	58.1 µM (inactive)	66.5 µM (inactive)	44.6 µM (inactive)	> 100 µM (inactive)	> 100 µM (inactive)	70 µM (inactive)	72.4 µM (inactive)	88.1 µM (inactive)	> 100 µM (inactive)	62.5	> 100 µM (inactive)	> 100 µM (inactive)	> 100 µM (inactive)	> 100 µM (inactive)	–	8.69 µM (inactive)	> 100 µM (inactive)	> 100 µM (inactive)	> 100 µM (inactive)	–
O=C1CCCC/C1=C(\Br)I	2.69 µM (inactive)	14.5 µM (inactive)	17.3 µM (inactive)	19 µM (inactive)	10.1 µM (inactive)	20.7 µM (inactive)	16.1 µM (inactive)	19.2 µM (inactive)	19.6 µM (inactive)	3.4	–	22 µM (inactive)	16.6 µM (inactive)	16 µM (inactive)	16.9 µM (inactive)	15.5 µM (inactive)	7 µM (inactive)	18.8 µM (inactive)	3.39 µM (inactive)	17.9 µM (inactive)
CC1=CC(=O)N(n2c(-c3ccccc3)n[nH]c2=O)C1=O	> 100 µM (inactive)	> 100 µM (inactive)	> 100 µM (inactive)	> 100 µM (inactive)	> 100 µM (inactive)	> 100 µM (inactive)	> 100 µM (inactive)	> 100 µM (inactive)	> 100 µM (inactive)	> 100	–	> 100 µM (inactive)	> 100 µM (inactive)	> 100 µM (inactive)	> 100 µM (inactive)	> 100 µM (inactive)	> 100 µM (inactive)	> 100 µM (inactive)	> 100 µM (inactive)	–
C[C@@H](c1ccccc1)N1CN(C(=O)OCc2ccccc2)C(CO)C1=O (stereo partly drawn)	84.5 µM (inactive)	> 100 µM (inactive)	> 100 µM (inactive)	> 100 µM (inactive)	> 100 µM (inactive)	> 100 µM (inactive)	> 100 µM (inactive)	> 100 µM (inactive)	> 100 µM (inactive)	> 100	> 100 µM (inactive)	> 100 µM (inactive)	95.7 µM (inactive)	> 100 µM (inactive)	> 100 µM (inactive)	> 100 µM (inactive)	> 100 µM (inactive)	> 100 µM (inactive)	> 100 µM (inactive)	–
C[n+]1c(-c2ccc(/C=N/NC(=O)C(=O)N/N=C/c3ccc(-c4cn5ccsc5[n+]4C)cc3)cc2)cn2ccsc21	> 100 µM (inactive)	> 100 µM (inactive)	> 100 µM (inactive)	> 100 µM (inactive)	–	> 100 µM (inactive)	> 100 µM (inactive)	> 100 µM (inactive)	> 100 µM (inactive)	> 100	47.8 µM (inactive)	> 100 µM (inactive)	> 100 µM (inactive)	–	> 100 µM (inactive)	–	> 100 µM (inactive)	> 100 µM (inactive)	> 100 µM (inactive)	–
O=C(O)CCC(C(=O)O)N1C(=O)c2ccccc2C1=O (stereo not drawn)	> 100 µM (inactive)	> 100 µM (inactive)	> 100 µM (inactive)	> 100 µM (inactive)	> 100 µM (inactive)	> 100 µM (inactive)	> 100 µM (inactive)	> 100 µM (inactive)	> 100 µM (inactive)	> 100	> 100 µM (inactive)	> 100 µM (inactive)	> 100 µM (inactive)	> 100 µM (inactive)	> 100 µM (inactive)	> 100 µM (inactive)	> 100 µM (inactive)	–	> 100 µM (inactive)	> 100 µM (inactive)
CC(C)(C)OC(=O)NC(Cc1ccc(O)cc1)C(=O)NC(CCCCN)C(=O)O (stereo not drawn) (Boc-Tyr-Lys-OH; configuration not given here)	35.8 µM (inactive)	35.2 µM (inactive)	44.9 µM (inactive)	–	18.5 µM (inactive)	22 µM (inactive)	23.7 µM (inactive)	20.6 µM (inactive)	28.4 µM (inactive)	> 10	32.6 µM (inactive)	–	27.5 µM (inactive)	27 µM (inactive)	31.6 µM (inactive)	16.5 µM (inactive)	15.3 µM (inactive)	–	33.3 µM (inactive)	–
